Laboratory results: US11529343B2, “Compositions and methods for identifying and treating dystonia disorders” (DUKE UNIVERSITY, priority 2015, dated 2022)
“Also recorded” adds a separate entry of the source. Structures can show the parent of a compound that is named as a salt.

Assays:
[1] = test system: delta-E Torsin1a localization; assay: Delta-E Torsin1a mislocalization assay (% cells with EGFP puncta, high-content imaging); type: cell-based, human; conditions: for effect on delta-E Torsin1a localization (cells with puncta), in words: dose response; for % pathology CC-v2 (dose response Curve Class): curve class per Inglese et al. 2006
Protocol: To limit variation in expression levels associated with random integration or transient expression, single copies of either WT or delta-E human TOR1A cDNAs with N-terminal EGFP fusions were inserted at the FRT site in Flp-In™ T-Rex™ 293 cells (Thermo Fisher Scientific #R780-07) via flippase recombinase-mediated cassette exchange according to the manufacturer's recommended protocols.
The cells were maintained at 37° C./5% CO2. All experiments were performed on cells with fewer than 5 passages.
Torsin1a expression was also controlled by tetracycline induction to avoid selective pressure modifying the cellular phenotypes. […] The mutant phenotype was measured as the percentage of cells with one or more EGFP puncta using automated high-content imaging analysis (see infra).
The image analysis algorithm was developed using the Cellomics ArrayScan V CompartmentAnalysisV2 protocol. Hoechst's nuclear staining (Ch1: excitation 350 nm; emission 461 nm) was used for focusing and for cell identification by nuclear size, shape, and intensity. […] Detected cells were gated according to nuclear area, length-to-width ratio, and perimeter-to-area ratio. For the purpose of analysis, cell bodies were defined by a radius of 10 μm from the outer edge of the defined nucleus. Overlapping cells were automatically segmented according to the Cellomics ArrayScanV CompartmentAnalysisV2 object segmentation feature. EGFP fluorescence (Ch2: excitation 488 nm; emission 509 nm) was used for puncta detection. […] Torsin a puncta were identified using the spot detection feature of the Compartmental AnalysisV2 protocol. The percentage of cells containing one or more puncta was used as the primary metric in this assay.
(§1) In order to test this model directly, the delta-E Torsin1a cell line was treated with compounds targeting the eIF2-alpha signaling pathway (FIG. 2). […] The following day, serial drug dilutions were prepared at 2× final concentration in assay media containing 10 μg/mL tetracycline and 30 μL of the drug/tetracycline mixture was added to the appropriate wells, while control wells received 30 μL of assay media alone or assay media+10 μg/mL tetracycline (final tetracycline concentration for all wells except negative controls: 5 μg/mL). Cells were then incubated at 37° C./5% CO^2 for 48 hours and fixed, permeabilized, Hoechst stained, and imaged as described above. The range of the Torsin1a localization effect was normalized to the percentage of cells with puncta in vehicle-treated delta-E cell line as the maximum and that in WT cell line as the minimum (FIG. 2, panels c-h). Cell count and EGFP-Torsin1a expression were normalized to their respective values in the vehicle-treated delta-E cell line as the maximum. All dose response data are the average of 4 independent experiments per dose. Untreated control data used for normalization are the average of 24 independent experiments.

[2] = test system: Flp-In T-REx 293 cells inducibly expressing delta-E Torsin1a; assay: Cytotoxicity (cell count, cellular morphology) in the Torsin1a assay cell line; type: cell-based, human; conditions: for Cytotox CC-v2 (dose response Curve Class): curve class per Inglese et al. 2006
Protocol: as §1
Efficacy is calculated as the magnitude of the pathology correction relative to the mutant Torsin1a pathology. For example an efficacy=−100% would be equivalent to the WT TorsinA phenotype, and 0% would be equivalent to the Mutant TorsinA phenotype. CCv2 refers to the dose response Curve Class annotation, and AC refers to Active Concentration.

luciferase secretion = assay: C.Luc. Secretion Assay; type: cell-based; conditions: for effect on secretory deficits, in words: orthogonal assays
Protocol: We tested each shRNA for its ability to rescue a previously described defect in luciferase secretion. Chen, P. et al. (2010) Hum. Mol. Genet. 19, 3502-15; Cao, S. et al. (2010) Dis. Model Mech. 3, 386-96; Barrows, N. J., et al., (2010) J. Biomol. Screen. 15, 735-47.) DYT1 patient data were obtained from 4 independent patient-derived lines and WT data (black bar) from 3 normal healthy control lines. Each line was tested in 5 independent experiments that included 4 technical replicates each (with the exception of SCD data from 3 independent experiments).
(Cao, S. et al. (2010) Dis. Model. Mech. 3, 386-96.) Subsequent testing of additional HIV protease inhibitors supported the activity of this class of compounds and generated favorable structure-activity relationship (SAR) data from which to design improved compounds (Tables 5 and 6). The results with a subset of compounds were also observed in a Luciferase secretion assay (Tables 5 and 6).

[3] = test system: homozygous DYT1 knock-in mice; assay: Perinatal survival of DYT1 knock-in mice after in utero exposure; type: in vivo
Excerpt: Pairs of heterozygous delta-E Torsin1a knock-in breeders (courtesy of Dr. W. Dauer, University of Michigan) were randomly assigned to vehicle or salubrinal treatment groups. Starting 10 days after breeding cages were established, each female mouse was given a daily subcutaneous injection of vehicle or salubrinal at approximately 6 p.m. Cages were checked for new pups three times per day: morning (˜8 a.m.), early afternoon (˜2 p.m.), and during injections (˜6 p.m.). In order to minimize stress and the possibility of litter abandonment, mice with newborn pups were not given injections. Newborn pups were identified by marking limbs with a permanent laboratory marker, and tail samples were taken for genotyping at P0. At approximately P0.5, cages were checked again, and the status of each pup was recorded. If pups were first observed at the 8 am check, the 2 pm check was considered P0.5. If pups were first observed at the 2 pm or 6 pm checks, an additional check was performed at approximately midnight, and considered P0.5. Mortality was also tracked the following day, after which time identifying marks were predominately washed off or obscured by fur. Approximately 8 days after birth all remaining pups were sacrificed, and 10 days after birth daily injections resumed for the subsequent litter. All genotyping and, whenever possible, all pup identification and mortality checks were performed blinded to treatment group.
Salubrinal (R&D Systems #2347) stocks were prepared at 26 mM (10× final concentration) in DMSO and stored in single-use aliquots at −80° C. Each day immediately before injections, a single salubrinal aliquot was thawed to room temperature and diluted 1:10 in injection vehicle (final vehicle composition: 1×PBS/10% DMSO/0.1% BSA). Empty injection vehicle was stored at room temperature in single-use aliquots. Mice were given a single subcutaneous injection of 3.3 mg/kg salubrinal (approximately 80 μL for a 30 g mouse) or an equivalent volume of empty injection vehicle. […]

[4] = delta-E Torsin1a assay cell line

In the case of `CC(C)CN(C[C@@H](O)[C@H](Cc1ccccc1)NC(=O)O[C@H]1CCOC1)S(=O)(=O)c1ccc(N)cc1` [Amprenavir], the “ΔE TorsinA Mislocalization Assay Localization EC50” value [1, 4] was “No Activity” and the “Cytotox CC-v2 (dose response Curve Class)” value (shortened to “Cytotox CC-v2”) [2] was 4.

For `COC(=O)N[C@H](C(=O)N[C@@H](Cc1ccccc1)[C@@H](O)CN(Cc1ccc(-c2ccccn2)cc1)NC(=O)[C@@H](NC(=O)OC)C(C)(C)C)C(C)(C)C` [Atazanavir], the “ΔE TorsinA Mislocalization Assay Localization EC50” value [1, 4] was “No Activity” and the “Cytotox CC-v2” value [2] was 4.

For `CCN(CC)CCC(=O)N1N=C(c2c(-c3ccccc3)c3cc(Br)ccc3[nH]c2=O)CC1c1ccc(Br)cc1` (stereo not shown) [CCT020312], the “effect on delta-E Torsin1a localization (cells with puncta), in words” value (shortened to “effect on delta-E Torsin1a localization”) ([1]; delta-E cell line) was “dose-dependent reduction in the number of cells with Torsin1a inclusions”.

With `C[C@H](NC(=O)Cc1cc(F)cc(F)c1)C(=O)N[C@H](C(=O)OC(C)(C)C)c1ccccc1` [DAPT] the “effect on delta-E Torsin1a localization” value ([1]; delta-E cell line) was “no effect”.

For `CC(C)CN(C[C@@H](O)[C@H](Cc1ccccc1)NC(=O)O[C@H]1CO[C@H]2OCC[C@H]21)S(=O)(=O)c1ccc(N)cc1` [Darunavir], the “ΔE TorsinA Mislocalization Assay Localization EC50” value [1, 4] was “No Activity” and the “C.Luc. Secretion Assay Secretion EC50” value (luciferase secretion) was “No Activity”.

With `Cc1cccc(C)c1OCC(=O)NC(CCC(Cc1ccccc1)NC(=O)C(C(C)C)N1CCCNC1=O)Cc1ccccc1` (stereo not shown) [Des-hydroxy Lopinavir] the “% pathology CC-v2 (dose response Curve Class)” value [1] was −3, the “Cytotox Efficacy” value [2] was −77.66% and the “Cytotox Max Resp” value [2] was −66.67%. For the same compound, the “Cytotox CC-v2” value [2] was −2.2.

For `CC(C)(C)NC(=O)[C@@H]1CN(Cc2cccnc2)CCN1C[C@@H](O)C[C@@H](Cc1ccccc1)C(=O)N[C@H]1c2ccccc2C[C@H]1O` [Indinavir sulfate], the “Cytotox Efficacy” value [2] was −80.64%, the “Cytotox Max Resp” value [2] was −67.80% and the “Cytotox CC-v2” value [2] was −3.

With `CC(C)(C)NC(=O)[C@@H]1CN(Cc2cccnc2)CCN1C[C@@H](O)C[C@@H](Cc1ccccc1)C(=O)N[C@H]1c2ccccc2C[C@H]1O` [Indinavir] the “effect on delta-E Torsin1a localization” value ([1]; delta-E cell line) was “corrected TorsinA localization in a dose-dependent fashion”.

With `CS(=O)(=O)O.Cc1c(O)cccc1C(=O)N[C@@H](CSc1ccccc1)[C@H](O)CN1C[C@H]2CCCC[C@H]2C[C@H]1C(=O)NC(C)(C)C.O` [Nelfinavir mesylae hydrate] the “% pathology CC-v2 (dose response Curve Class)” value [1] was −1.1, the “Cytotox Efficacy” value [2] was −98.05% and the “Cytotox Max Resp” value [2] was −95.64%. For the same compound, the “Cytotox CC-v2” value [2] was −1.1.

`Cc1c(O)cccc1C(=O)N[C@@H](CSc1ccccc1)[C@H](O)CN1C[C@H]2CCCC[C@H]2C[C@H]1C(=O)NC(C)(C)C` [Nelfinavir] was tested, and the Emax ([1]; Homo sapiens, delta-E Torsin1a assay cell line, read-out: ΔE TorsinA Mislocalization Assay Localization Max Efficacy) was 80% and the “effect on delta-E Torsin1a localization” value ([1]; delta-E cell line) was “corrected TorsinA localization in a dose-dependent fashion”.

`CC(C)c1nc(CN(C)C(=O)N[C@H](C(=O)N[C@@H](Cc2ccccc2)C[C@H](O)[C@H](Cc2ccccc2)NC(=O)OCc2cncs2)C(C)C)cs1` [Ritonavir] was tested, and the “effect on delta-E Torsin1a localization” value ([1]; delta-E cell line) was “corrected TorsinA localization in a dose-dependent fashion; also recorded: restored”, the “Cytotox CC-v2” value [2] was 4 and the “effect on secretory deficits, in words” value (luciferase secretion) was “corrected secretory deficits”.

For `O=C(/C=C/c1ccccc1)NC(NC(=S)Nc1cccc2cccnc12)C(Cl)(Cl)Cl` (stereo not shown) [Salubrinal], the “perinatal survival / mortality of delta-E/delta-E pups” value ([3]; 3.3 mg/kg subcutaneous daily to pregnant dams, about embryonic day 10 through delivery, versus vehicle) was “dramatically reduced the mortality; also recorded: improves perinatal survival”, the “mortality of wild-type and heterozygous pups” value ([3]; 3.3 mg/kg subcutaneous daily to pregnant dams, versus vehicle) was “no mortality differences” and the “homozygous delta-E Torsin1a pups surviving through the second postnatal day” value ([3]; no postnatal treatment, no vehicle-treated homozygous pup survived the first postnatal day) was “two”. The “steady-state EGFP-Torsin1a levels, in words” value ([1]; delta-E cell line) was “without modifying steady-state EGFP-Torsin1a levels” and the “effect on delta-E Torsin1a localization” value ([1]; delta-E cell line) was “robust dose-dependent normalization”.

With `CC(C)(C)NC(=O)[C@@H]1C[C@@H]2CCCC[C@@H]2CN1C[C@@H](O)[C@H](Cc1ccccc1)NC(=O)[C@H](CC(N)=O)NC(=O)c1ccc2ccccc2n1` [Saquinavir] the “effect on delta-E Torsin1a localization” value ([1]; delta-E cell line) was “corrected TorsinA localization in a dose-dependent fashion” and the “effect on secretory deficits, in words” value (luciferase secretion) was “corrected secretory deficits”.

With `Cc1c(O)cccc1C(=O)N[C@@H](CSc1ccccc1)[C@H](O)CN1C[C@H]2CCCC[C@H]2C[C@H]1C(=O)NC(C)(C)C` [Viracept] the “Cytotox Efficacy” value [2] was −106.32%, the “Cytotox Max Resp” value [2] was −97.72% and the “Cytotox CC-v2” value [2] was −1.1.

In the case of `N=C(N)N/N=C/c1c(Cl)cccc1Cl` [guanabenz], the “effect on delta-E Torsin1a localization” value ([1]; delta-E cell line) was “no effect”.

In the case of `CCCC(CCC)C(=O)O` [valproic acid], the “effect on delta-E Torsin1a localization” value ([1]; delta-E cell line) was “no effect”.
